3 molecules from ChEMBL document CHEMBL1144582, “Identification of arylsulfonamides as Aquaporin 4 inhibitors” (Bioorg Med Chem Lett, 2007) can be followed below.

Assay [1] is described as follows: Inhibition of human AQP4b-mediated water transport in Xenopus oocytes. Conditions: Oocyte.
In assay [2] the test system is Oocyte. The experiment in a line: Inhibition of human AQP4b-mediated water transport in Xenopus oocytes at 20 uM. In kind it is cell-based.

As for `CC(=O)Nc1nnc(S(N)(=O)=O)s1` [ACETAZOLAMIDE], the IC50 (in general, the midpoint of a concentration-inhibition curve) in assay [1] amounted to 900 nM.

In the case of `CC(=O)Nc1ccc(S(N)(=O)=O)cc1`, the inhibition (commonly the share of the control response that was lost under treatment) in assay [2] is 23%. Regarding `CCOc1ccc2nc(S(N)(=O)=O)sc2c1`, the inhibition in assay [2] amounted to 68%.
